US12070464B2, “Methods of treating myeloproliferative disorders” (priority 2019, dated 2024)

Key:
[1] = tested on: CD34+ cells isolated from healthy donor bone marrow; experiment: Megakaryocyte differentiation, single agent, 14 days (FACS); format: cell-based; settings: FIG. 2
Procedure: The effects of Compound 1 on megakaryocyte differentiation and proliferation were evaluated using CD34+ cells isolated from healthy donor bone marrow (data on file). The CD34+cells were grown in megakaryocyte differentiation serum-free stem cell differentiation base medium with a megakaryocyte-driving cytokine cocktail for 14 days with DMSO or Compound 1 at concentrations ranging from 3 nM to 500 nM. The cells were then stained for CD34 (progenitor marker), CD45 (leukocyte marker) and CD41a (mature megakaryocyte marker) and assessed by FACS for viability and marker expression. CD41a expression and cell size were used as markers of megakaryocyte differentiation. […] The shift from high to low CD41a expression began at approximately 50 nM, with pronounced effects observed at 200 to 500 nM, as shown in FIG. 2.

[2] = tested on: JAK inhibitor treatment naive myelofibrosis patients; format: in vivo, human
Procedure: A Phase 2 study of Compound 1 in subjects with myelofibrosis (MF) was conducted. Three treatment arms were studied:
Arm 3—combination treatment with Compound 1 and Rux in patients (pts) who have not previously been administered a JAK inhibitor, i.e., JAK inhibitor treatment naive. In this arm, key eligibility criteria of included JAKi naive myelofibrosis (MF) patients (pts) with Dynamic International Prognostic Scoring (DIPSS) score int-1 or higher, ECOG performance status ≤2, platelet counts (PLT) ≥100×109/L, peripheral blood blast count <10%, anemia (hemoglobin <10 g/dL), ≥5 cm palpable spleen, ≥2 symptoms measurable (score ≥3) or a total symptom score (c using the MFSAF v4.0. Primary endpoint: spleen volume response (SVR); key secondary endpoints: change in TSS, safety and PK; additional endpoints: changes in proinflammatory cytokine (Ck) levels, BM morphology and mutant allele burden.
The starting dose of Compound 1 was 125 mg given orally, once daily for 2 weeks on/1 week off in a 21-day dosing cycle. Two separate time points for data analysis occurred for at least Arms 1 and 2 and are discussed below: one at approximately 12 weeks of treatment (first assessment of spleen volume by MRI or CT and every 12 weeks thereafter) and another at approximately 24 weeks of treatment (first assessment of bone marrow biopsy and every 24 weeks thereafter). Patients were added to the study following the first time point.
Demographics and results are as follows: Baseline median age: 71 years (52-76), gender: 8 male (72.7%), ECOG ≤1: 10 (90.9%) patients, primary MF: 8 (72.7%) patients, DIPSS score: int-1/int-2/high: 2/7/2 patients, median platelet: 368×109/L (112-951), 9 (81.8%) patients with hemoglobin <10 g/dL, median spleen volume: 1379 cc (580-2807), median TSS: 11.8 (4.1-17), driver mutations: 11 (100%) with ≥1 JAK2/MPL/CALR mutations, HMR (high molecular risk) mutations: 6 […] patients, and ≥3 mutations: 4 (36%) patients. […] See FIG. 9, where * is data post cut off-date.

[3] = tested on: patients with myelofibrosis; experiment: Initial human clinical data set, four patients (combination and monotherapy arms); format: in vivo
Source text: Two myelofibrosis patients to enroll (Patients 245 and 246) received Compound 1 in combination with ruxolitinib and received 18 treatment cycles (11 months of treatment). The other two patients to enroll (Patients 247 and 248) received 10 cycles of Compound 1 as monotherapy (6 months of treatment). […] One of the patients who was transfusion dependent at study entry became transfusion independent (defined as >12 weeks without the need for a red blood cell (RBC) transfusion. Indeed, 7 months had elapsed since their last transfusion.
All four patients experienced an increase in their hemoglobin levels with multiple treatment cycles with Compound 1. In addition, one of the patients who entered the study with uncontrolled thrombocytosis (baseline platelets were 895×10^9/L) experienced a normalization of their platelet counts within the first month of monotherapy treatment with Compound 1. The patient's platelet counts remained normal for more than 20 weeks. This patient's thrombocytosis was also accompanied by severe headaches requiring multiple hospital admission. Following treatment with Compound 1, however, the patient's headaches were resolved. Brief narratives for all four patients treated for at least 6 months are presented below.
At entry into the study with Compound 1, their spleen volume by MRI was 1404 cc and was 12 cm by palpation. The patient presented with early satiety, night sweats, and dyspnea at the start of the study. […] The lowest spleen volume by MRI was 1144 cc, a 19% reduction, at the 6-month MM. The dose of ruxolitinib was reduced on Cycle 10 to 7.5 mg BID to address decreasing platelet count.
When Patient 246 initiated combination treatment with Compound 1 125 mg QD and ruxolitinib 10 mg BID their spleen volume was 607 cc by MRI and 2 cm by palpation and they required regular transfusions (2 units of RBC every 3-4 weeks).
The patient also presented with uncontrolled thrombocytosis at study entry (platelet count of 895×10^9/L at baseline) despite hydroxyurea. In addition, the patient had experienced persistent and debilitating headaches that required multiple hospital admissions for pain control. Their platelets were normalized after receiving their first two weeks of Compound 1 monotherapy (183 x10^9/L) and have remained within the normal range for the remainder of the time they have been on study (see FIG. 6). Within 2 months on Compound 1 monotherapy, the patient's severe headaches had resolved; their night sweats were less frequent; and a 37% reduction in symptoms was assessed by the Myeloproliferative Neoplasm Symptom (MNS) score. Their ECOG performance score decreased from 2 to 1 after two treatment cycles with CPI-0610 and a 25% decrease in spleen volume (640 cc) was assessed by MRI after 8 treatment cycles, the most recent measurement.
Their constitutional symptoms at study entry included fatigue, early satiety, and difficulty concentrating. […] The patient was reinitiated with a reduced Compound 1 dose of 175 mg at the beginning of Cycle 2, which has been tolerated for the remaining time on study (>6 months). While the patient's spleen has shown minimal change through palpation a spleen volume reduction of 11% (1023 cc) was measured by MRI after 3 months on treatment with Compound 1. Their MNS score improved 19% after 2 months on the 175 mg QD dose and after 6 months of Compound 1 treatment their bone marrow fibrosis grade decreased from MF-2 at baseline to MF-1 based on a local pathologist's assessment.

[4] = expanded population n=15, at least 12 weeks, FIG. 16

Cc1noc2c1-c1ccccc1C(c1ccc(Cl)cc1)=N[C@H]2CC(N)=O [Compound 1, 2-((4S)-6-(4-chlorophenyl)-1-methyl-4H-benzo[c]isoxazolo[4,5-e]azepin-4-yl)acetamide]
concentration at which shift from high to low CD41a expression began [1]: approximately 50 nM
patients achieving ≥50% improvement in TSS ([2]; 4 patients on treatment for ≥12 weeks, with ruxolitinib): 100%
patients achieving ≥35% spleen volume reduction ([2]; 4 patients on treatment for ≥12 weeks, with ruxolitinib, FIG. 9): 100%
patients who had a TSS of ≥10 ([2]; expanded population n=15, FIG. 17): about 71%
patients with overall improvement in PGIC ([2]; expanded population n=15, FIG. 18): About 80%
SVR, average [2, 4]: about −49.7%
patients achieving ≥35% SVR [2, 4]: About 80%
DLTs and grade ≥3 thrombocytopenia ([2]; human, in vivo): no DLTs or grade ≥3 thrombocytopenia
most common TEAE observed in ≥2 patients ([2]; human, in vivo): anemia (1 grade 3), fatigue (all ≤grade 2), and non-cumulative reversible thrombocytopenia (all ≤grade 2)
spleen volume reduction ([3]; Patient 245, 6-month MRI, with ruxolitinib): 19%
lowest spleen volume by MRI ([3]; Patient 245, 6-month MRI, with ruxolitinib, 1404 cc at entry): 1144 cc
spleen size ([3]; Patient 245, after 4 weeks of therapy with Compound 1 and ruxolitinib, 12 cm before): 5 cm
spleen by palpation ([3]; Patient 245, within 4 months, Compound 1 125 mg QD and ruxolitinib 15 mg BID, 12 cm at entry): 5 cm
time to transfusion independence ([3]; Patient 246, Compound 1 125 mg QD titrated to 175 mg QD and ruxolitinib 10 mg BID, TI = >12 weeks without transfusion and hemoglobin >8 g/dL): ≤ 7 months
reduction in spleen volume ([3]; Patient 246, by Cycle 12, with ruxolitinib): 37%
spleen volume ([3]; Patient 246, by Cycle 12, with ruxolitinib, 607 cc at start): 380 cc
most recent hemoglobin measurement ([3]; Patient 246, with ruxolitinib): 10.9 g/dL
decrease in spleen volume by MRI ([3]; Patient 247, after 8 treatment cycles, monotherapy): 25%
spleen volume by MRI ([3]; Patient 247, after 8 treatment cycles, monotherapy, 858 cc at entry): 640 cc
platelets ([3]; Patient 247, after first two weeks of monotherapy, 895×10^9/L at baseline): 1.83e+11 L⁻¹
ECOG performance score ([3]; Patient 247, after two treatment cycles, from 2, monotherapy): 1
reduction in symptoms by Myeloproliferative Neoplasm Symptom (MNS) score ([3]; Patient 247, within 2 months, monotherapy): 37%
time reduced dose has been tolerated ([3]; Patient 248, 175 mg from Cycle 2): > 6 months
MNS score improvement ([3]; Patient 248, after 2 months on 175 mg QD): 19%
spleen volume reduction by MRI ([3]; Patient 248, after 3 months, monotherapy): 11%
spleen volume by MRI ([3]; Patient 248, after 3 months, monotherapy, 1148 cc at entry): 1023 cc
hemoglobin level after treatment ([3]; from about 8 g/dl, FIG. 5): about 10.9 g/dl
tolerability of starting dose ([3]; human, in vivo): did not tolerate
time elapsed since last transfusion ([3]; patient who was transfusion dependent at study entry): 7 months
time platelet counts remained normal ([3]; patient with uncontrolled thrombocytosis (Patient 247), monotherapy): more than 20 weeks
hemoglobin level after treatment ([3]; patients 247 and 248, from about 8 g/dL): about 11.5 g/dL
